Assay results: the NIST ThermoML archive (doi:10.1021/acs.jced.9b00415)

Assay: xn = mol fraction of the nth substance listed
Conditions: 102 kPa, Liquid; for viscosity: Concentric cylinders viscometry; for mass density: Vibrating tube method

CCCCn1cc[n+](C)c1.CS(=O)(=O)[O-] [1-butyl-3-methylimidazolium methanesulfonate] + CCCCn1cc[n+](C)c1.O=[N+]([O-])[O-]
Conditions	mass density [kg/m3]	viscosity [mPa·s]
303.15 K, x2 = 0.9	1154.3	180.1
308.15 K, x2 = 0.9	1151.1	135.4
313.15 K, x2 = 0.8	1149.3	113.6
313.15 K, x2 = 0.9	1147.9	104
318.15 K, x2 = 0.6	1150.5	103
318.15 K, x2 = 0.7	1148.5	97.85
318.15 K, x2 = 0.8	1146.2	88.38
318.15 K, x2 = 0.9	1144.7	81.49
323.15 K, x2 = 0.6	1147.3	80.7
323.15 K, x2 = 0.7	1145.4	77.05
323.15 K, x2 = 0.8	1143	70.03
323.15 K, x2 = 0.9	1141.6	64.96
328.15 K, x2 = 0.4	1146.9	70.76
328.15 K, x2 = 0.5	1145.4	66.57
328.15 K, x2 = 0.6	1144.1	64.37
328.15 K, x2 = 0.7	1142.2	61.72
328.15 K, x2 = 0.8	1139.9	56.42
328.15 K, x2 = 0.9	1138.5	52.61
333.15 K, x2 = 0.3	1144.9	59.13
333.15 K, x2 = 0.4	1143.8	56.85
333.15 K, x2 = 0.5	1142.2	53.7
333.15 K, x2 = 0.6	1141	52.18
333.15 K, x2 = 0.7	1139.1	50.22
333.15 K, x2 = 0.8	1136.8	46.14
333.15 K, x2 = 0.9	1135.4	43.23
338.15 K, x2 = 0.3	1141.8	48.04
338.15 K, x2 = 0.4	1140.6	46.37
338.15 K, x2 = 0.5	1139.1	43.99
338.15 K, x2 = 0.6	1137.9	42.9
338.15 K, x2 = 0.7	1136	41.44
338.15 K, x2 = 0.8	1133.7	38.25
338.15 K, x2 = 0.9	1132.3	35.99
343.15 K, x2 = 0.3	1138.6	39.58
343.15 K, x2 = 0.4	1137.5	38.34
343.15 K, x2 = 0.5	1136	36.52
343.15 K, x2 = 0.6	1134.8	35.74
343.15 K, x2 = 0.7	1132.9	34.63
343.15 K, x2 = 0.8	1130.6	32.11
343.15 K, x2 = 0.9	1129.3	30.32
348.15 K, x2 = 0.1	1138.3	34.98
348.15 K, x2 = 0.2	1136.8	34.5
348.15 K, x2 = 0.3	1135.5	33.03
348.15 K, x2 = 0.4	1134.4	32.1
348.15 K, x2 = 0.5	1132.9	30.69
348.15 K, x2 = 0.6	1131.7	30.13
348.15 K, x2 = 0.7	1129.9	29.28
348.15 K, x2 = 0.8	1127.6	27.25
348.15 K, x2 = 0.9	1126.2	25.81
353.15 K, x2 = 0.1	1135.2	29.38
353.15 K, x2 = 0.2	1133.6	29.04
353.15 K, x2 = 0.3	1132.4	27.88
353.15 K, x2 = 0.4	1131.3	27.17
353.15 K, x2 = 0.5	1129.8	26.08
353.15 K, x2 = 0.6	1128.6	25.68
353.15 K, x2 = 0.7	1126.8	25.02
353.15 K, x2 = 0.8	1124.5	23.36
353.15 K, x2 = 0.9	1123.2	22.2
358.15 K, x2 = 0.1	1132	24.94
358.15 K, x2 = 0.2	1130.5	24.71
358.15 K, x2 = 0.3	1129.3	23.79
358.15 K, x2 = 0.4	1128.2	23.23
358.15 K, x2 = 0.5	1126.8	22.38
358.15 K, x2 = 0.6	1125.6	22.09
358.15 K, x2 = 0.7	1123.8	21.57
358.15 K, x2 = 0.8	1121.5	20.21
358.15 K, x2 = 0.9	1120.2	19.26
363.15 K, x2 = 0.1	1128.9	21.39
363.15 K, x2 = 0.2	1127.4	21.27
363.15 K, x2 = 0.3	1126.2	20.51
363.15 K, x2 = 0.4	1125.1	20.04
363.15 K, x2 = 0.5	1123.7	19.36
363.15 K, x2 = 0.6	1122.5	19.18
363.15 K, x2 = 0.7	1120.7	18.76
363.15 K, x2 = 0.8	1118.5	17.63
363.15 K, x2 = 0.9	1117.2	16.86

CCCCn1cc[n+](C)c1.CS(=O)(=O)[O-] [1-butyl-3-methylimidazolium methanesulfonate] + CCCCn1cc[n+](C)c1.[Cl-]
Conditions	mass density [kg/m3]	viscosity [mPa·s]
323.15 K, x1 = 0.3	1098.9	388.2
323.15 K, x1 = 0.4	1106.3	365.5
323.15 K, x1 = 0.5	1116.6	267.1
328.15 K, x1 = 0.1	1076.7	490.5
328.15 K, x1 = 0.2	1086.1	428.3
328.15 K, x1 = 0.3	1096.1	278.2
328.15 K, x1 = 0.4	1103.4	261.8
328.15 K, x1 = 0.5	1113.7	195.6
333.15 K, x1 = 0.1	1074	346.3
333.15 K, x1 = 0.2	1083.4	304.6
333.15 K, x1 = 0.3	1093.3	204.2
333.15 K, x1 = 0.4	1100.6	192.2
333.15 K, x1 = 0.5	1110.9	146.5
333.15 K, x1 = 0.6	1119.1	128
338.15 K, x1 = 0.1	1071.4	250.7
338.15 K, x1 = 0.2	1080.7	222
338.15 K, x1 = 0.3	1090.6	153.2
338.15 K, x1 = 0.4	1097.9	144.3
338.15 K, x1 = 0.5	1108.1	112.1
338.15 K, x1 = 0.6	1116.3	98.76
338.15 K, x1 = 0.7	1124.3	82.97
343.15 K, x1 = 0.1	1068.7	185.6
343.15 K, x1 = 0.2	1078	165.4
343.15 K, x1 = 0.3	1087.9	117.2
343.15 K, x1 = 0.4	1095.2	110.5
343.15 K, x1 = 0.5	1105.3	87.31
343.15 K, x1 = 0.6	1113.5	77.62
343.15 K, x1 = 0.7	1121.5	65.89
343.15 K, x1 = 0.8	1129.7	56.84
348.15 K, x1 = 0.1	1066.1	140.3
348.15 K, x1 = 0.2	1075.4	125.8
348.15 K, x1 = 0.3	1085.2	91.36
348.15 K, x1 = 0.4	1092.5	86.21
348.15 K, x1 = 0.5	1102.6	69.19
348.15 K, x1 = 0.6	1110.7	62.01
348.15 K, x1 = 0.7	1118.6	53.15
348.15 K, x1 = 0.8	1126.8	46.31
348.15 K, x1 = 0.9	1134.4	39.65
353.15 K, x1 = 0.1	1063.5	108.1
353.15 K, x1 = 0.2	1072.8	97.5
353.15 K, x1 = 0.3	1082.5	72.39
353.15 K, x1 = 0.4	1089.7	68.4
353.15 K, x1 = 0.5	1099.8	55.7
353.15 K, x1 = 0.6	1107.9	50.28
353.15 K, x1 = 0.7	1115.7	43.48
353.15 K, x1 = 0.8	1123.9	38.24
353.15 K, x1 = 0.9	1131.4	33.04
358.15 K, x1 = 0.1	1060.9	84.67
358.15 K, x1 = 0.2	1070.1	76.85
358.15 K, x1 = 0.3	1079.8	58.23
358.15 K, x1 = 0.4	1086.9	55.11
358.15 K, x1 = 0.5	1097	45.47
358.15 K, x1 = 0.6	1105	41.33
358.15 K, x1 = 0.7	1112.8	36.03
358.15 K, x1 = 0.8	1120.9	31.96
358.15 K, x1 = 0.9	1128.4	27.85
363.15 K, x1 = 0.1	1058.2	67.42
363.15 K, x1 = 0.2	1067.3	61.54
363.15 K, x1 = 0.3	1077	47.51
363.15 K, x1 = 0.4	1084.1	45.04
363.15 K, x1 = 0.5	1094.1	37.62
363.15 K, x1 = 0.6	1102.1	34.41
363.15 K, x1 = 0.7	1109.9	30.22
363.15 K, x1 = 0.8	1117.9	27.02
363.15 K, x1 = 0.9	1125.3	23.72

CCCCn1cc[n+](C)c1.O=[N+]([O-])[O-] [1-butyl-3-methylimidazolium nitrate] + CCCCn1cc[n+](C)c1.[Cl-]
Conditions	mass density [kg/m3]	viscosity [mPa·s]
298.15 K, x1 = 0.8	1139.9	373.6
303.15 K, x1 = 0.8	1136.8	266.4
308.15 K, x1 = 0.8	1133.7	194.9
313.15 K, x1 = 0.5	1109.6	365.1
313.15 K, x1 = 0.6	1116.9	275.4
313.15 K, x1 = 0.8	1130.6	146
318.15 K, x1 = 0.2	–	721.3
318.15 K, x1 = 0.5	1106.6	262.7
318.15 K, x1 = 0.6	1113.9	201.5
318.15 K, x1 = 0.8	1127.6	111.7
323.15 K, x1 = 0.2	–	495.6
323.15 K, x1 = 0.4	1097.9	259.8
323.15 K, x1 = 0.5	1103.7	193.7
323.15 K, x1 = 0.6	1110.9	150.8
323.15 K, x1 = 0.8	1124.6	87.1
328.15 K, x1 = 0.2	1080.2	349.9
328.15 K, x1 = 0.4	1095	191.3
328.15 K, x1 = 0.5	1100.8	145.9
328.15 K, x1 = 0.6	1107.9	115.2
328.15 K, x1 = 0.8	1121.6	69.09
333.15 K, x1 = 0.1	1070.3	378.4
333.15 K, x1 = 0.2	1077.3	253.4
333.15 K, x1 = 0.4	1092	144
333.15 K, x1 = 0.5	1097.9	112
333.15 K, x1 = 0.6	1104.9	89.66
333.15 K, x1 = 0.8	1118.6	55.68
338.15 K, x1 = 0.1	1067.5	271.8
338.15 K, x1 = 0.2	1074.4	187.6
338.15 K, x1 = 0.4	1089.1	110.6
338.15 K, x1 = 0.5	1095	87.65
338.15 K, x1 = 0.6	1101.9	71.02
338.15 K, x1 = 0.8	1115.7	45.53
343.15 K, x1 = 0.1	1064.8	199.9
343.15 K, x1 = 0.2	1071.6	141.9
343.15 K, x1 = 0.4	1086.2	86.47
343.15 K, x1 = 0.5	1092.1	69.7
343.15 K, x1 = 0.6	1099	57.14
343.15 K, x1 = 0.8	1112.7	37.72
348.15 K, x1 = 0.1	1062.1	150.1
348.15 K, x1 = 0.2	1068.8	109.3
348.15 K, x1 = 0.4	1083.3	68.73
348.15 K, x1 = 0.5	1089.2	56.25
348.15 K, x1 = 0.6	1096.1	46.63
348.15 K, x1 = 0.8	1109.7	31.62
353.15 K, x1 = 0.1	1059.3	115
353.15 K, x1 = 0.2	1065.9	85.68
353.15 K, x1 = 0.4	1080.5	55.46
353.15 K, x1 = 0.5	1086.4	46.03
353.15 K, x1 = 0.6	1093.2	38.55
353.15 K, x1 = 0.8	1106.8	26.81
358.15 K, x1 = 0.1	1056.6	89.62
358.15 K, x1 = 0.2	1063.1	68.25
358.15 K, x1 = 0.4	1077.6	45.37
358.15 K, x1 = 0.5	1083.5	38.16
358.15 K, x1 = 0.6	1090.3	32.27
358.15 K, x1 = 0.8	1103.8	22.96
363.15 K, x1 = 0.1	1053.8	71.03
363.15 K, x1 = 0.2	1060.4	55.17
363.15 K, x1 = 0.4	1074.8	37.6
363.15 K, x1 = 0.5	1080.6	32.02
363.15 K, x1 = 0.6	1087.4	27.32
363.15 K, x1 = 0.8	1100.9	19.87
